Values of other authors in patent US20160045463A1, “USE OF METALLOPROTEASE INHIBITORS IN THE TREATMENT OF POLYCYSTIC LIVER DISEASES” (UNIVERSIDAD DE SALAMANCA, priority 2012, published 2016).

What was measured:
[1] = test system: polycystic livers; conditions: ADPKD patients subjected to kidney transplant with polycystic livers; cited from earlier work
[2] = test system: PCK rats; conditions: cited from earlier work

| Structure (SMILES) | volume of the liver [1] | liver cystogenesis [2] |
| --- | --- | --- |
| C=CC[C@@H]1/C=C(\C)C[C@H](C)C[C@H](OC)[C@H]2O[C@@](O)(C(=O)C(=O)N3CCCC[C@H]3C(=O)O[C@H](/C(C)=C/[C@@H]3CC[C@@H](O)[C@H](OC)C3)[C@H](C)[C@@H](O)CC1=O)[C@H](C)C[C@@H]2OC [tacrolimus] | increased the volume of the liver | – |
| C[C@@H](O)[C@@H]1NC(=O)[C@H](CCCCN)NC(=O)[C@@H](Cc2c[nH]c3ccccc23)NC(=O)[C@H](Cc2ccccc2)NC(=O)[C@@H](NC(=O)[C@H](N)Cc2ccccc2)CSSC[C@@H](C(=O)N[C@H](CO)[C@@H](C)O)NC1=O [octreotide] | – | inhibited |
